Literature values in publication PMC4468036 (Bioorganic & medicinal chemistry, 2014).
pIC50: −log10 of the molar value.

Columns and labels:
[1] = target: δ receptor; conditions: read-out: IC50 at δ receptor; selectivity of ML140
[2] = target: μ receptor; conditions: read-out: IC50 at μ receptor; selectivity of ML140

In the case of Cc1ccc(S(=O)(=O)NCc2ccc(C(=O)NCCN(Cc3ccccc3)C(C)C)cc2)cc1 [ML140], the pIC50 [1] is given as < 4.49 and the pIC50 [2] is given as < 4.62.
